Test results reported in patent US20210330821A1, “METHODS OF MAKING PROSTATE CANCER TREATMENT DECISIONS” (priority 2018, published 2021).

Assay: OSPREY safety: drug-related adverse events after 18F-DCFPyL
Format: in vivo, human
Procedure: The coprimary endpoints of sensitivity and specificity of ^18F-DCFPyL PET/CT for detecting pelvic lymph node metastases were evaluated in Cohort A. Secondary endpoints included safety in both cohorts, positive predictive value (PPV) and negative predictive value (NPV) in Cohort A, and sensitivity and PPV in Cohort B. Three central, blinded, and independent readers evaluated the ^18F-DCFPyL scans. Histopathology served as the reference standard to which imaging findings were compared. FIG. 1 provides information regarding the study design and cohorts.
Co-primary endpoints of specificity and sensitivity of ^18F-DCFPyL PET/CT for detecting prostate cancer metastases in pelvic lymph nodes were evaluated in Cohort A. Key secondary endpoints included incidence of adverse events, positive predictive value (PPV) and negative predictive value (NPV) of ^18F-DCFPyL PET/CT imaging to detect pelvic lymph node metastases in Cohort A, sensitivity and PPV of ^18F-DCFPyL PET/CT imaging to detect prostate cancer within sites of metastasis or recurrence in Cohort B. Three central, blinded, and independent readers evaluated the ^18F-DCFPyL scans. Imaging findings were compared to histopathology as the truth standard.
Pts underwent image-guided biopsy.

O=C(O)CC[C@H](NC(=O)N[C@@H](CCCCNC(=O)c1ccc([18F])nc1)C(=O)O)C(=O)O [18F-DCFPyL]
Cohort B pts who experienced ≥1 drug-related AE (Cohort B, 117 men, dysgeusia and generalized rash): 1.7% | Severity of drug-related AEs (Cohort B, dysgeusia and generalized rash): mild (Grade 1) | Dysgeusia (drug-related adverse event) (both cohorts): 2.1% | Headache (drug-related adverse event) (both cohorts): 2.1% | Drug-related serious adverse events (both cohorts, 385 men): No drug-related serious adverse events were observed | Men who experienced ≥1 drug-related adverse event (both cohorts, 385 men): 7.0% | Tolerability (patients with PCa, OSPREY): generally well tolerated
